Source: BigSolDB 2.1

Conditions: in chloroform

Brc1sc(Br)c(Br)c1Br
Conditions	solubility (mole fraction)
278.15 K	0.0198
282.15 K	0.0231
286.15 K	0.0265
290.15 K	0.0304
294.15 K	0.0349
298.15 K	0.0401
302.15 K	0.0458
306.15 K	0.0517
310.15 K	0.0588
314.15 K	0.066
318.15 K	0.0745
322.15 K	0.0828
